The NIST ThermoML archive (doi:10.1021/je0602723)
± gives the expanded uncertainty stated by the source.

Test: activity coefficient (dimensionless); of the first substance listed, at infinite dilution; xn = mol fraction of the nth substance listed
Settings: Liquid, Chromatography, x1 = 0

activity coefficient (323 K): 1.68 ± 0.11
activity coefficient (333.4 K): 1.59 ± 0.11
activity coefficient (343.8 K): 1.5 ± 0.1
activity coefficient (354.2 K): 1.42 ± 0.09
activity coefficient (365 K): 1.29 ± 0.08
SMILES: CCCCO [butan-1-ol] + CCOS(=O)(=O)[O-].CCn1cc[n+](C)c1
